Drawing on patent US20010039286A1, “2-aryl indole derivatives and their use as therapeutic agents” (priority 2000, published 2001), this text covers melting point for one compound.

Usually melting point stands for the temperature of the solid-liquid transition. The compound `Cl.OC1(Cc2ccccc2)CCN(CCCc2c(-c3ccc(Cl)cc3)[nH]c3ccc(Cl)cc23)CC1` gave a melting point of 147 to 150 °C.
